Where a name gives a salt, the structure may show the parent alone.
Experiments:
μ-receptor = μ-receptor (Homo sapiens (Human), UniProt P35372); assay: Receptor binding, competitive displacement of [3H]DAMGO; conditions: 0.25 nM [3H]DAMGO, CHO cell membrane protein, 60 min at 25° C.
Method in brief: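 Ki derived via Cheng-Prusoff from IC50 (log-probit fit) of displacement of 0.25 nM [3H]DAMGO, 12 concentrations, from human μ-receptor in CHO cell membranes. Binding: 50 mM Tris-HCl pH 7.5, 25 °C, 60 min, 10 μM naloxone defining nonspecific, filter-bound radioactivity counted.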

human μ opioid receptor = human μ opioid receptor (Homo sapiens (Human), UniProt P35372); assay: Functional activity ([35S]GTPγS binding); assay type: biochemical; conditions: [35S]GTPγS 0.080 nM, CHO cell membranes, 60 min at 30° C., filtration
Method in brief: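 Membranes from stably transfected CHO cells (7.5 μg) incubated with 12 test-compound concentrations and 0.080 nM [35S]GTPγS in 50 mM Tris-HCl pH 7.4, 3 mM MgCl2, 0.2 mM EGTA, 3 μM GDP, 100 mM NaCl, 60 min at 30° C. Nonspecific binding defined with 10 μM GTPγS; bound label collected by filtration and scintillation counting.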

CCCN1CC2CCCC(C1)C2(OC)c1cccc(C(N)=O)c1 [Compound 47, 3-((1R,5S,9r)-9-methoxy-3-propyl-3-azabicyclo[3.3.1]nonan-9-yl)benzamide hydrochloride]
Ki (μ-receptor): < 1 nM
EC50 (human μ opioid receptor): < 10 nM

COC1(c2ccnc(C(N)=O)c2)C2CCCC1CN([C@@H]1CCOC1)C2 (stereo partly drawn) [Compound 78, 4-((1R,5S,9s)-9-methoxy-3-((S)-tetrahydrofuran-3-yl)-3-azabicyclo[3.3.1]nonan-9-yl)picolinamide hydrochloride]
Ki (μ-receptor): 1 to 5 nM
EC50 (human μ opioid receptor): 10 to 75 nM

COC1(c2cccc(C(N)=O)c2)C2CCCC1CN(C1CCC1)C2 [Compound 42, 3-((1R,5S,9r)-3-cyclobutyl-9-methoxy-3-azabicyclo[3.3.1]nonan-9-yl)benzamide hydrochloride]
Ki (μ-receptor): < 1 nM
EC50 (human μ opioid receptor): < 10 nM

COC1(c2ccnc(C(N)=O)c2)C2CCCC1CN(Cc1ccccn1)C2 [Compound 67, 4-((1R,5S,9r)-9-methoxy-3-(pyridin-2-ylmethyl)-3-azabicyclo[3.3.1]nonan-9-yl)picolinamide dihydrochloride]
Ki (μ-receptor): 1 to 5 nM
EC50 (human μ opioid receptor): 10 to 75 nM

COC1(c2cccc(C(N)=O)c2)C2CCCC1CN(CCC(F)(F)F)C2 [Compound 34, 3-((1R,5S,9r)-9-methoxy-3-(3,3,3-trifluoropropyl)-3-azabicyclo[3.3.1]nonan-9-yl)benzamide hydrochloride]
Ki (μ-receptor): < 1 nM
EC50 (human μ opioid receptor): < 10 nM

COC1(c2cccc(C(N)=O)c2)C2CCCC1CN(C1CC3(CCC3)C1)C2 [Compound 129, 3-((1R,5S,9r)-9-methoxy-3-(spiro[3.3]heptan-2-yl)-3-azabicyclo[3.3.1]nonan-9-yl)benzamide hydrochloride]
Ki (μ-receptor): < 1 nM
EC50 (human μ opioid receptor): < 10 nM

COC1(c2ccnc(C(N)=O)c2)C2CCCC1CN(C1CCC(F)(F)CC1)C2 [Compound 7, 4-((1R,5S,9r)-3-(4,4-difluorocyclohexyl)-9-methoxy-3-azabicyclo[3.3.1]nonan-9-yl)picolinamide hydrochloride]
Ki (μ-receptor): 1 to 5 nM
EC50 (human μ opioid receptor): > 75 nM

COC1(c2cccc(C(N)=O)c2)C2CCCC1CN(Cc1nc3ccccc3[nH]1)C2 [Compound 64, 3-((1R,5S,9r)-3-((1H-benzo[d]imidazol-2-yl)methyl)-9-methoxy-3-azabicyclo[3.3.1]nonan-9-yl)benzamide hydrochloride]
Ki (μ-receptor): < 1 nM
EC50 (human μ opioid receptor): < 10 nM

COC1(c2ccc(C(N)=O)s2)C2CCCC1CN(CC1CC1)C2 [Compound 36, 5-((1R,5S,9r)-3-(cyclopropylmethyl)-9-methoxy-3-azabicyclo[3.3.1]nonan-9-yl)thiophene-2-carboxamide hydrochloride]
Ki (μ-receptor): < 1 nM
EC50 (human μ opioid receptor): 10 to 75 nM

COC1(c2ccnc(C(N)=O)c2)C2CCCC1CN(C1CC3(CCC3)C1)C2 [Compound 77, 4-((1R,5S,9r)-9-methoxy-3-(spiro[3.3]heptan-2-yl)-3-azabicyclo[3.3.1]nonan-9-yl)picolinamide hydrochloride]
Ki (μ-receptor): < 1 nM
EC50 (human μ opioid receptor): < 10 nM

COC1(c2ccnc(C(N)=O)c2)C2CCCC1CN(C1CCCC1)C2 [Compound 55, 4-((1R,5S,9r)-3-cyclopentyl-9-methoxy-3-azabicyclo[3.3.1]nonan-9-yl)picolinamide hydrochloride]
Ki (μ-receptor): < 1 nM
EC50 (human μ opioid receptor): 10 to 75 nM

COC1(c2ccnc(C(N)=O)c2)C2CCCC1CN(CC1(O)Cc3ccccc3C1)C2 [Compound 73, 4-((1R,5S,9r)-3-((2-hydroxy-2,3-dihydro-1H-inden-2-yl)methyl)-9-methoxy-3-azabicyclo[3.3.1]nonan-9-yl)picolinamide hydrochloride]
Ki (μ-receptor): < 1 nM
EC50 (human μ opioid receptor): < 10 nM

COC1(c2ccnc(C(N)=O)c2)C2CCCC1CN(C[C@H]1C[C@@H]3C[C@@H]3C1)C2 (stereo partly drawn) [Compound 102, 4-((1R,5S,9R)-3-((1R,3r,5S)-bicyclo[3.1.0]hexan-3-ylmethyl)-9-methoxy-3-azabicyclo[3.3.1]nonan-9-yl)picolinamide hydrochloride]
Ki (μ-receptor): < 1 nM
EC50 (human μ opioid receptor): 10 to 75 nM

COC1(c2ccnc(C(N)=O)c2)C2CCCC1CN(C1CC(c3ccccc3)C1)C2 [Compound 87, 4-((1R,5S,9R)-9-methoxy-3-((1r,3R)-3-phenylcyclobutyl)-3-azabicyclo[3.3.1]nonan-9-yl)picolinamide hydrochloride]
Ki (μ-receptor): < 1 nM
EC50 (human μ opioid receptor): < 10 nM

COC1(c2ccnc(C(N)=O)c2)C2CCCC1CN(C13CC(C1)C3)C2 [Compound 103, 4-((1R,5S,9r)-3-(bicyclo[1.1.1]pentan-1-yl)-9-methoxy-3-azabicyclo[3.3.1]nonan-9-yl)picolinamide hydrochloride]
Ki (μ-receptor): 1 to 5 nM
EC50 (human μ opioid receptor): > 75 nM

COC1(c2cccc(C(N)=O)c2)C2CCCC1CN(C1CC3(CCOCC3)C1)C2 [Compound 6, 3-((1R,5S,9r)-9-methoxy-3-(7-oxaspiro[3.5]nonan-2-yl)-3-azabicyclo[3.3.1]nonan-9-yl)benzamide hydrochloride]
Ki (μ-receptor): < 1 nM
EC50 (human μ opioid receptor): < 10 nM

COC1(c2ccc(C(N)=O)s2)C2CCCC1CN(C1CCOCC1)C2 [Compound 71, 5-((1R,5S,9r)-9-methoxy-3-(tetrahydro-2H-pyran-4-yl)-3-azabicyclo[3.3.1]nonan-9-yl)thiophene-2-carboxamide hydrochloride]
Ki (μ-receptor): > 5 nM
EC50 (human μ opioid receptor): > 75 nM

COC1(c2cccc(C(N)=O)c2O)C2CCCC1CN(C)C2 [Compound 49, 2-hydroxy-3-((1R,5S,9r)-9-methoxy-3-methyl-3-azabicyclo[3.3.1]nonan-9-yl)benzamide hydrochloride]
Ki (μ-receptor): < 1 nM
EC50 (human μ opioid receptor): < 10 nM

COC1(c2ccnc(C(N)=O)c2)C2CCCC1CN(CCC1CC1)C2 [Compound 86, 4-((1R,5S,9r)-3-(2-cyclopropylethyl)-9-methoxy-3-azabicyclo[3.3.1]nonan-9-yl)picolinamide hydrochloride]
Ki (μ-receptor): 1 to 5 nM
EC50 (human μ opioid receptor): 10 to 75 nM

COC1(c2cccc(C(N)=O)c2)C2CCCC1CN(Cc1cnn[nH]1)C2 [Compound 75, 3-((1R,5S,9r)-3-((1H-1,2,3-triazol-5-yl)methyl)-9-methoxy-3-azabicyclo[3.3.1]nonan-9-yl)benzamide hydrochloride]
Ki (μ-receptor): < 1 nM
EC50 (human μ opioid receptor): < 10 nM

CCOC1(c2cccc(C(N)=O)c2)C2CCCC1CN(CC1CC1)C2 [Compound 30, 3-((1R,5S,9r)-3-(cyclopropylmethyl)-9-ethoxy-3-azabicyclo[3.3.1]nonan-9-yl)benzamide hydrochloride]
Ki (μ-receptor): < 1 nM
EC50 (human μ opioid receptor): < 10 nM

COC1(c2ccnc(C(N)=O)c2)C2CCCC1CN(Cc1cccnc1)C2 [Compound 68, 4-((1R,5S,9r)-9-methoxy-3-(pyridin-3-ylmethyl)-3-azabicyclo[3.3.1]nonan-9-yl)picolinamide dihydrochloride]
Ki (μ-receptor): 1 to 5 nM
EC50 (human μ opioid receptor): 10 to 75 nM

COC1(c2ccnc(C(N)=O)c2)C2CCCC1CN(Cc1cnco1)C2 (stereo not shown) [Compound 115, hydrochloride]
Ki (μ-receptor): 1 to 5 nM
EC50 (human μ opioid receptor): 10 to 75 nM

COC1(c2cccc(C(N)=O)c2)C2CCCC1CN([C@@H]1CCCOC1)C2 (single isomer, unassigned) [Compound 141, hydrochloride]
Ki (μ-receptor): < 1 nM
EC50 (human μ opioid receptor): 10 to 75 nM

COC1(c2cccc(C(N)=O)c2)C2CCCC1CN(C1CCC3(CC1)COC3)C2 [Compound 3, 3-((1R,5S,9r)-9-methoxy-3-(2-oxaspiro[3.5]nonan-7-yl)-3-azabicyclo[3.3.1]nonan-9-yl)benzamide (S)-2-hydroxysuccinate]
Ki (μ-receptor): < 1 nM
EC50 (human μ opioid receptor): < 10 nM

COCCN1CC2CCCC(C1)C2(OC)c1ccnc(C(N)=O)c1 [Compound 83, 4-((1R,5S,9r)-9-methoxy-3-(2-methoxyethyl)-3-azabicyclo[3.3.1]nonan-9-yl)picolinamide hydrochloride]
Ki (μ-receptor): 1 to 5 nM
EC50 (human μ opioid receptor): 10 to 75 nM

COC1(c2ccnc(C(N)=O)c2)C2CCCC1CN([C@H]1C[C@@H](OC)C1)C2 (stereo partly drawn) [Compound 139, 4-((1R,5S,9R)-9-methoxy-3-((1r,3R)-3-methoxycyclobutyl)-3-azabicyclo[3.3.1]nonan-9-yl)picolinamide hydrochloride]
Ki (μ-receptor): < 1 nM
EC50 (human μ opioid receptor): 10 to 75 nM

COC1(c2ccnc(C(N)=O)c2)C2CCCC1CN(CCN1CCCS1(=O)=O)C2 [Compound 88, 4-((1R,5S,9r)-3-(2-(1,1-dioxidoisothiazolidin-2-yl)ethyl)-9-methoxy-3-azabicyclo[3.3.1]nonan-9-yl)picolinamide hydrochloride]
Ki (μ-receptor): 1 to 5 nM
EC50 (human μ opioid receptor): > 75 nM

COC1(c2ccnc(C(N)=O)c2)C2CCCC1CN(Cc1cncn1C)C2 [Compound 121, 4-((1R,5S,9r)-9-methoxy-3-((1-methyl-1H-imidazol-5-yl)methyl)-3-azabicyclo[3.3.1]nonan-9-yl)picolinamide hydrochloride]
Ki (μ-receptor): 1 to 5 nM
EC50 (human μ opioid receptor): > 75 nM

COC1(c2ccnc(C(N)=O)c2)C2CCCC1CN(C1CCCOC1)C2 [Compound 111, 4-((1R,5S,9r)-9-methoxy-3-(tetrahydro-2H-pyran-3-yl)-3-azabicyclo[3.3.1]nonan-9-yl)picolinamide hydrochloride]
Ki (μ-receptor): > 5 nM
EC50 (human μ opioid receptor): > 75 nM

CCC[C@H](C)N1CC2CCCC(C1)C2(OC)c1ccnc(C(N)=O)c1 (single isomer, unassigned) [Compound 134, hydrochloride]
Ki (μ-receptor): < 1 nM
EC50 (human μ opioid receptor): 10 to 75 nM

COC1(c2cccc(C(N)=O)c2)C2CCCC1CN(C1COC1)C2 [Compound 50, 3-((1R,5S,9r)-9-methoxy-3-(oxetan-3-yl)-3-azabicyclo[3.3.1]nonan-9-yl)benzamide (S)-2-hydroxysuccinate]
Ki (μ-receptor): 1 to 5 nM
EC50 (human μ opioid receptor): 10 to 75 nM

From patent US10604489B2, “Compounds for the treatment of pain” (priority 2018, dated 2020)
